Source: ChEMBL document CHEMBL1152077, “Novel, water-soluble phosphate derivatives of 2-ethoxy carbonylpaclitaxel as potential prodrugs of paclitaxel: Synthesis and antitumor evaluation” (1995)

Assays:
Assay type in all cases: functional
Mus musculus [1] = assay: Tested in vivo antitumor activity at a dose of subcutaneous 18 mg/kg/injection relative to paclitaxel in Madison 109 murine lung carcinoma (M109)
Mus musculus [2] = assay: Tested in vivo antitumor activity at a dose of subcutaneous 40 mg/kg/injection in Madison 109 murine lung carcinoma (M109)
Mus musculus [3] = assay: Tested in vivo antitumor activity at a dose of subcutaneous 33 mg/kg/injection in Madison 109 murine lung carcinoma (M109)
Mus musculus [4] = assay: Tested in vivo antitumor activity at a dose of subcutaneous 48 mg/kg/injection relative to paclitaxel in Madison 109 murine lung carcinoma (M109)
Mus musculus [5] = assay: Tested in vivo antitumor activity at a dose of subcutaneous 24 mg/kg/injection relative to paclitaxel in Madison 109 murine lung carcinoma (M109)

SMILES	T-C (Mus musculus [1])	T-C (Mus musculus [2])	T-C (Mus musculus [3])	T-C (Mus musculus [4])	T-C (Mus musculus [5])
CCOC(=O)O[C@@H](C(=O)O[C@H]1C[C@@]2(O)[C@@H](OC(=O)c3ccccc3)[C@@H]3[C@]4(OC(C)=O)CO[C@@H]4C[C@H](OC(=O)CC(C)(C)c4c(C)cc(C)cc4OP(=O)([O-])O)[C@@]3(C)C(=O)[C@H](OC(C)=O)C(=C1C)C2(C)C)[C@@H](NC(=O)c1ccccc1)c1ccccc1.[Na+]	12.3 days (optimal dose)-1	18 days (optimal dose)-1	–	–	–
CCOC(=O)O[C@@H](C(=O)O[C@H]1C[C@@]2(O)[C@@H](OC(=O)c3ccccc3)[C@@H]3[C@]4(OC(C)=O)CO[C@@H]4C[C@H](OC(=O)Cc4ccccc4OP(=O)([O-])O)[C@@]3(C)C(=O)[C@H](OC(C)=O)C(=C1C)C2(C)C)[C@@H](NC(=O)c1ccccc1)c1ccccc1.[Na+]	–	–	1.5 days (optimal dose)-1	15.8 days (optimal dose)-1	–
CCOC(=O)O[C@@H](C(=O)O[C@H]1C[C@@]2(O)[C@@H](OC(=O)c3ccccc3)[C@@H]3[C@]4(OC(C)=O)CO[C@@H]4C[C@H](OC(=O)c4ccccc4COP(=O)([O-])O)[C@@]3(C)C(=O)[C@H](OC(C)=O)C(=C1C)C2(C)C)[C@@H](NC(=O)c1ccccc1)c1ccccc1.[K+]	–	17 days (optimal dose)-1	–	–	10.8 days (optimal dose)-1
